According to ChEMBL document CHEMBL5352419, “Design, synthesis, and biological evaluation of tetrahydroquinoline amphiphiles as membrane-targeting antimicrobials against pathogenic bacteria and fungi” (Eur J Med Chem, 2022):
In brackets after ≈: the same amount, converted by molar mass.

Experiments:
Escherichia coli [1] = test: Antibiofilm activity against Escherichia coli ATCC25922 assessed as inhibition of biofilm formation at 3.125 ug/mL incubated for 24 hrs by crystal violet staining based analysis relative to control; assay type: functional; details: dose 3.125 µg/ml
Escherichia coli [2] = test: Antibiofilm activity against Escherichia coli ATCC25922 assessed as inhibition of biofilm formation at 0.78 ug/mL incubated for 24 hrs by crystal violet staining based analysis relative to control; assay type: functional; details: dose 0.78 µg/ml
Escherichia coli [3] = test: Disruption of preformed biofilm in Escherichia coli ATCC25922 assessed as residual preformed biofilm at 25 ug/mL incubated for 24 hrs by crystal violet staining based analysis relative to control; assay type: functional; details: dose 25.0 µg/ml
Escherichia coli [4] = test: Disruption of preformed biofilm in Escherichia coli ATCC25922 assessed as residual preformed biofilm at 6.25 ug/mL incubated for 24 hrs by crystal violet staining based analysis relative to control; assay type: functional; details: dose 6.25 µg/ml
Escherichia coli [5] = test: Disruption of preformed biofilm in Escherichia coli ATCC25922 assessed as residual preformed biofilm at 0.78 ug/mL incubated for 24 hrs by crystal violet staining based analysis relative to control; assay type: functional; details: dose 0.78 µg/ml
Escherichia coli [6] = test: Disruption of preformed biofilm in Escherichia coli ATCC25922 assessed as residual preformed biofilm at 3.125 ug/mL incubated for 24 hrs by crystal violet staining based analysis relative to control; assay type: functional; details: dose 3.125 µg/ml
Escherichia coli [7] = test: Antibiofilm activity against Escherichia coli ATCC25922 assessed as inhibition of biofilm formation at 0.39 ug/mL incubated for 24 hrs by crystal violet staining based analysis relative to control; assay type: functional; details: dose 0.39 µg/ml
Escherichia coli [8] = test: Antibiofilm activity against Escherichia coli ATCC25922 assessed as inhibition of biofilm formation at 6.25 ug/mL incubated for 24 hrs by crystal violet staining based analysis relative to control; assay type: functional; details: dose 6.25 µg/ml
Escherichia coli [9] = test: Disruption of preformed biofilm in Escherichia coli ATCC25922 assessed as residual preformed biofilm at 12.5 ug/mL incubated for 24 hrs by crystal violet staining based analysis relative to control; assay type: functional; details: dose 12.5 µg/ml
Escherichia coli [10] = test: Antimicrobial activity against Escherichia coli ATCC25922 assessed as bacterial growth inhibition incubated for 24 hrs by Muller Hinton broth based dilution assay; assay type: functional
Staphylococcus aureus [11] = test: Antimicrobial activity against methicillin-resistant Staphylococcus aureus N315 assessed as bacterial growth inhibition incubated for 24 hrs by Muller Hinton broth based dilution assay; assay type: functional
Pseudomonas aeruginosa = test: Antimicrobial activity against Pseudomonas aeruginosa ATCC9027 assessed as bacterial growth inhibition incubated for 24 hrs by Muller Hinton broth based dilution assay; assay type: functional
Candida albicans [12] = test: Antimicrobial activity against Candida albicans CMCC98001 assessed as fungal growth inhibition incubated for 48 hrs by Sabouraud Dextrose broth based dilution assay; assay type: functional
Klebsiella pneumoniae [13] = test: Antimicrobial activity against Klebsiella pneumoniae ATCC10031 assessed as bacterial growth inhibition incubated for 24 hrs by Muller Hinton broth based dilution assay; assay type: functional
Acinetobacter baumannii [14] = test: Antimicrobial activity against Acinetobacter baumannii R2889 assessed as bacterial growth inhibition incubated for 24 hrs by Muller Hinton broth based dilution assay; assay type: functional
Klebsiella pneumoniae [15] = test: Antimicrobial activity against Klebsiella pneumoniae ATCC14581 assessed as bacterial growth inhibition incubated for 24 hrs by Muller Hinton broth based dilution assay; assay type: functional
Candida albicans [16] = test: Antimicrobial activity against Candida albicans ATCC10231 assessed as fungal growth inhibition incubated for 48 hrs by Sabouraud Dextrose broth based dilution assay; assay type: functional
Acinetobacter baumannii [17] = test: Antimicrobial activity against Acinetobacter baumannii ATCC17978 assessed as bacterial growth inhibition incubated for 24 hrs by Muller Hinton broth based dilution assay; assay type: functional
Staphylococcus aureus [18] = test: Antimicrobial activity against methicillin-resistant Staphylococcus aureus NCTC10442 assessed as bacterial growth inhibition incubated for 24 hrs by Muller Hinton broth based dilution assay; assay type: functional
Staphylococcus aureus [19] = test: Antimicrobial activity against Staphylococcus aureus ATCC29213 assessed as bacterial growth inhibition incubated for 24 hrs by Muller Hinton broth based dilution assay; assay type: functional
[20] = Hemolytic activity in rabbit RBC incubated for 1 hr by absorbance based microplate reader assay; assay type: toxicity, cell-based, Oryctolagus cuniculus, Erythrocyte; details: rabbit red blood cells (erythrocytes)

| Molecule | MIC (Escherichia coli [10]) | MIC (Staphylococcus aureus [11]) | MIC (Pseudomonas aeruginosa) | MIC (Candida albicans [12]) | MIC (Klebsiella pneumoniae [13]) | MIC (Acinetobacter baumannii [14]) | MIC (Klebsiella pneumoniae [15]) | MIC (Candida albicans [16]) | MIC (Acinetobacter baumannii [17]) | MIC (Staphylococcus aureus [18]) | MIC (Staphylococcus aureus [19]) | HC50 at 1 h [20] | further results |
| --- | --- | --- | --- | --- | --- | --- | --- | --- | --- | --- | --- | --- | --- |
| POLYMYXIN B | – | – | – | – | – | – | – | – | – | – | – | – | inhibition (Escherichia coli [1]): 99.8%; inhibition (Escherichia coli [2]): 43.3%; Activity (Escherichia coli [3]): 6.65%; Activity (Escherichia coli [4]): 7.57%; Activity (Escherichia coli [5]): 87.5%; Activity (Escherichia coli [6]): 19.2%; inhibition (Escherichia coli [7]): 22.9%; inhibition (Escherichia coli [8]): 100%; Activity (Escherichia coli [9]): 8.48% |
| CCCCCCCCCN1CCCc2cc(OCC(=O)N[C@@H](CCCNC(=N)N)C(=O)N[C@@H](CCCNC(=N)N)C(=O)N[C@@H](CCCNC(=N)N)C(=O)OC)ccc21 | 12.5 µg/mL (≈ 15.3 µM) | 1.56 µg/mL (≈ 1.91 µM) | 25 µg/mL (≈ 30.6 µM) | 50 µg/mL (≈ 61.3 µM) | 12.5 µg/mL (≈ 15.3 µM) | 50 µg/mL (≈ 61.3 µM) | 12.5 µg/mL (≈ 15.3 µM) | > 50 µg/mL | 12.5 µg/mL (≈ 15.3 µM) | 1.56 µg/mL (≈ 1.91 µM) | 3.12 µg/mL (≈ 3.83 µM) | > 200 µg/mL | – |
| CC(C)=CCC/C(C)=C/CN1CCCc2cc(OCCCCNC(=N)N)ccc21 | 3.12 µg/mL (≈ 7.84 µM) | 0.78 µg/mL (≈ 1.96 µM) | 6.25 µg/mL (≈ 15.7 µM) | 1.56 µg/mL (≈ 3.91 µM) | 1.56 µg/mL (≈ 3.91 µM) | 3.12 µg/mL (≈ 7.84 µM) | 1.56 µg/mL (≈ 3.91 µM) | 3.12 µg/mL (≈ 7.84 µM) | 3.12 µg/mL (≈ 7.84 µM) | 0.78 µg/mL (≈ 1.96 µM) | 0.78 µg/mL (≈ 1.96 µM) | 154 µg/mL | – |
| CC(C)=CCN1CCCc2cc(OCCCCCCCCCCCCNC(=N)N)ccc21 | 12.5 µg/mL (≈ 28.2 µM) | 0.78 µg/mL (≈ 1.76 µM) | 50 µg/mL (≈ 113 µM) | 0.78 µg/mL (≈ 1.76 µM) | 3.12 µg/mL (≈ 7.06 µM) | 12.5 µg/mL (≈ 28.2 µM) | 3.12 µg/mL (≈ 7.06 µM) | 0.78 µg/mL (≈ 1.76 µM) | 12.5 µg/mL (≈ 28.2 µM) | 0.78 µg/mL (≈ 1.76 µM) | 1.56 µg/mL (≈ 3.52 µM) | > 200 µg/mL | – |
| CCCCCCCCCN1CCCc2cc(OCC(=O)N[C@@H](CCCNC(=N)N)C(=O)OC)ccc21 | 6.25 µg/mL (≈ 12.4 µM) | 1.56 µg/mL (≈ 3.1 µM) | 12.5 µg/mL (≈ 24.8 µM) | 3.12 µg/mL (≈ 6.2 µM) | 3.12 µg/mL (≈ 6.2 µM) | 6.25 µg/mL (≈ 12.4 µM) | 3.12 µg/mL (≈ 6.2 µM) | 3.12 µg/mL (≈ 6.2 µM) | 6.25 µg/mL (≈ 12.4 µM) | 1.56 µg/mL (≈ 3.1 µM) | 3.12 µg/mL (≈ 6.2 µM) | > 200 µg/mL | – |
| CCCCCCCN1CCCc2cc(OCCCCNC(=N)N)ccc21 | 3.12 µg/mL (≈ 8.67 µM) | 0.78 µg/mL (≈ 2.16 µM) | 6.25 µg/mL (≈ 17.3 µM) | 3.12 µg/mL (≈ 8.67 µM) | 1.56 µg/mL (≈ 4.33 µM) | 6.25 µg/mL (≈ 17.3 µM) | 1.56 µg/mL (≈ 4.33 µM) | 6.25 µg/mL (≈ 17.3 µM) | 6.25 µg/mL (≈ 17.3 µM) | 0.78 µg/mL (≈ 2.16 µM) | 1.56 µg/mL (≈ 4.33 µM) | 169 µg/mL | – |
| O=C(O)c1cn(C2CC2)c2cc(N3CCNCC3)c(F)cc2c1=O [CIPROFLOXACIN] | 0.049 µg/mL (≈ 0.148 µM) | 0.39 µg/mL (≈ 1.18 µM) | 0.195 µg/mL (≈ 0.589 µM) | – | 0.195 µg/mL (≈ 0.589 µM) | 0.78 µg/mL (≈ 2.35 µM) | 0.195 µg/mL (≈ 0.589 µM) | – | 0.39 µg/mL (≈ 1.18 µM) | 0.39 µg/mL (≈ 1.18 µM) | 0.39 µg/mL (≈ 1.18 µM) | – | – |
| CCCCCCCN1CCCc2cc(OCC(=O)N[C@@H](CCCNC(=N)N)C(=O)OC)ccc21 | 12.5 µg/mL (≈ 26.3 µM) | 1.56 µg/mL (≈ 3.28 µM) | 12.5 µg/mL (≈ 26.3 µM) | 12.5 µg/mL (≈ 26.3 µM) | 6.25 µg/mL (≈ 13.1 µM) | 12.5 µg/mL (≈ 26.3 µM) | 6.25 µg/mL (≈ 13.1 µM) | 25 µg/mL (≈ 52.6 µM) | 12.5 µg/mL (≈ 26.3 µM) | 1.56 µg/mL (≈ 3.28 µM) | 3.12 µg/mL (≈ 6.57 µM) | > 200 µg/mL | – |
| CCCCCCCCCN1CCCc2cc(OCC(=O)N[C@@H](CCCNC(=N)N)C(=O)N[C@@H](CCCNC(=N)N)C(N)=O)ccc21 | 25 µg/mL (≈ 38.8 µM) | 3.12 µg/mL (≈ 4.85 µM) | 25 µg/mL (≈ 38.8 µM) | 50 µg/mL (≈ 77.5 µM) | 6.25 µg/mL (≈ 9.69 µM) | 50 µg/mL (≈ 77.5 µM) | 6.25 µg/mL (≈ 9.69 µM) | > 50 µg/mL | 12.5 µg/mL (≈ 19.4 µM) | 3.12 µg/mL (≈ 4.85 µM) | 3.12 µg/mL (≈ 4.85 µM) | > 200 µg/mL | – |
| CC(C)=CCN1CCCc2cc(OCCCCCCCCCCNC(=N)N)ccc21 | 12.5 µg/mL (≈ 30.1 µM) | 0.78 µg/mL (≈ 1.88 µM) | 50 µg/mL (≈ 121 µM) | 1.56 µg/mL (≈ 3.76 µM) | 3.12 µg/mL (≈ 7.54 µM) | 12.5 µg/mL (≈ 30.1 µM) | 6.25 µg/mL (≈ 15.1 µM) | 1.56 µg/mL (≈ 3.76 µM) | 25 µg/mL (≈ 60.3 µM) | 1.56 µg/mL (≈ 3.76 µM) | 1.56 µg/mL (≈ 3.76 µM) | > 200 µg/mL | – |
| Oc1ccc2c(c1)CCCN2 | > 50 µg/mL | > 50 µg/mL | – | > 50 µg/mL | – | – | – | > 50 µg/mL | – | > 50 µg/mL | > 50 µg/mL | > 200 µg/mL | – |
| CCCN(CCC)CCCCOc1ccc2c(c1)CCCN2CC=C(C)C | > 50 µg/mL | 25 µg/mL (≈ 67.1 µM) | – | > 50 µg/mL | – | – | – | > 50 µg/mL | – | 50 µg/mL (≈ 134 µM) | 25 µg/mL (≈ 67.1 µM) | > 200 µg/mL | – |
| CC(C)=CCN1CCCc2cc(OCCCNC(=N)N)ccc21 | 50 µg/mL (≈ 158 µM) | 6.25 µg/mL (≈ 19.8 µM) | – | > 50 µg/mL | – | – | – | > 50 µg/mL | – | 6.25 µg/mL (≈ 19.8 µM) | 6.25 µg/mL (≈ 19.8 µM) | > 200 µg/mL | – |
